Drawing on PubChem BioAssay (NCI), this text covers TGI and GI50 for 28 compounds.

Test systems include SN12C renal; HCC-2998 colon; SNB-78 CNS; DLD-1 colon; M19-MEL melanoma; HOP-18 NSCLC; LXFL 529 NSCLC; DMS 273 small cell lung; KM20L2 colon; XF 498 CNS; DMS 114 small cell lung; RXF-631 renal.
Assay in all cases: inhibition of tumour cell growth, NCI panel, 48 h

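Interpolation was linear, between the two tested concentrations surrounding the appropriate level; five concentrations were tested over 48 hours in 96-well plates. GI50 = concentration required for 50% inhibition of growth. TGI marks complete inhibition of growth.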 Some results are limits rather than exact numbers.

With `Cc1cn(Cc2cccc(C3=NCCCN3)c2)c(=O)n(Cc2cccc(C3=NCCCN3)c2)c1=O`, the TGI in the assay on SN12C renal and with HCC-2998 colon was above 100 µM throughout.

Consider `O=C(CSCC(=O)N/N=C\c1ccc(O)c(O)c1O)N/N=C\c1ccc(O)c(O)c1O`, for which the TGI in the assay with SN12C renal came out at 59 µM; in the assay on HCC-2998 colon, 46.1 µM.

For `O=[N+]([O-])c1ccc2sc(/C=N/c3ccccn3)cc2c1`, the TGI in the assay with SN12C renal and in the assay with HCC-2998 colon was above 100 µM each time.

`COC(=O)c1c(-c2cc(OC)c(OC)c(OC)c2)oc2ccccc2c1=O`: the TGI in the assay with SN12C renal, with SNB-78 CNS, in the assay with DLD-1 colon, in the assay on M19-MEL melanoma, with HCC-2998 colon and with HOP-18 NSCLC was above 100 µM in each case. Besides, the TGI in the assay with LXFL 529 NSCLC, with DMS 273 small cell lung and with KM20L2 colon was above 100 µM throughout.

For the compound `CO[C@@]12C[C@@H](C)[C@]34O[C@H]3C[C@]3(C)O[C@]43CC1=C(C)C(=O)O2`, the TGI with SN12C renal and in the assay with HCC-2998 colon was above 100 µM in each case.

`CC(NC1=CC(=O)c2cccnc2C1=O)C(O)c1ccccc1` (stereo unspecified): the TGI in the assay on SN12C renal worked out at 3.04 µM; with HCC-2998 colon, 10.8 µM.

Consider `CN(C)C(=S)C(Cl)(c1ccccc1)c1ccccc1`, for which the TGI with SN12C renal and with HCC-2998 colon was above 100 µM each time.

On to `O=C(CC(C(=O)c1ccsc1)c1ccsc1)c1ccsc1` (stereo unspecified), for which the TGI in the assay on SN12C renal and with HCC-2998 colon was above 100 µM in each case.

Take `Nc1cc2ncnn2c(SCC(=O)N/N=C/C(Br)=C\c2ccccc2)n1`: the TGI with SN12C renal came to 48.4 µM; in the assay with HCC-2998 colon, 40.6 µM.

In the case of `Nc1nc(N)c2ncn(CCOC(c3ccccc3)P(=O)(O)O)c2n1` (stereo unspecified), the TGI in the assay with SN12C renal, with SNB-78 CNS, in the assay with DLD-1 colon, with XF 498 CNS, in the assay with M19-MEL melanoma and with HCC-2998 colon was above 100 µM each time. The TGI in the assay on DMS 114 small cell lung, in the assay with DMS 273 small cell lung and with KM20L2 colon was above 100 µM each time.

For `CC(C)OC(=O)[C@H]1ON2O[C@H](O[C@@H]3CCCC[C@H]3c3ccccc3)C([Si](C)(C)c3ccccc3)[C@H]3OC(=O)[C@@H]1C32` (stereo partly specified), the TGI with SN12C renal and in the assay with HCC-2998 colon was above 100 µM throughout.

On to `CN(C)CCCNC(=O)c1cc(NS(=O)(=O)c2ccc3c(c2)C(=O)c2ccccc2C3=O)cn1C`, for which the TGI in the assay on SN12C renal worked out at 90.7 µM; in the assay on HCC-2998 colon, 57.3 µM.

Turning to `O=C1c2ccccc2C(=O)c2c(NC(=O)C3CC3)ccc(NC(=O)C3CC3)c21`, the TGI with SN12C renal and in the assay on HCC-2998 colon was above 100 µM in each case.

Regarding `N#Cc1ccc(Oc2ccccc2)cc1C#N`, the TGI in the assay with SN12C renal, in the assay on SNB-78 CNS, in the assay with DLD-1 colon, in the assay with XF 498 CNS, in the assay on M19-MEL melanoma and in the assay on HCC-2998 colon was above 100 µM in each case. For the same compound, the TGI with HOP-18 NSCLC was above 100 µM; in the assay on DMS 114 small cell lung, 59.1 µM; with LXFL 529 NSCLC it was above 100 µM; in the assay with DMS 273 small cell lung, 34.5 µM; in the assay on KM20L2 colon it was above 100 µM.

The compound `COc1ccc(CNc2nc(NCc3ccc(OC)cc3)nc(NC3CCCC3)n2)cc1` came in with a TGI in the assay with SN12C renal above 100 µM. Besides, in the assay with HCC-2998 colon, the GI50 was 3.67 µM and the TGI came to 38.6 µM.

Take `O=S(=O)(O)c1ccc2c(N=Nc3ccc(S(=O)(=O)O)c4ccccc34)c(O)c(S(=O)(=O)O)cc2c1`: the TGI in the assay on SN12C renal and with HCC-2998 colon was above 100 µM each time.

As for `CC(=O)Oc1c2ccsc2c(OC(C)=O)c2ccsc12`, the figures for the TGI with SN12C renal and with HCC-2998 colon were 2.03 µM and 3.45 µM, respectively.

For the compound `C=CCOCn1cc(F)c(=O)[nH]c1=O`, the TGI with SN12C renal and in the assay with HCC-2998 colon was above 100 µM throughout.

As to `O=[N+]([O-])c1cc(-[n+]2cc([O-])on2)ccc1Cl`, the figures for the TGI in the assay with SN12C renal and in the assay with HCC-2998 colon were 29.8 µM and 34.9 µM, respectively.

Take `COc1ccc(N=Nc2ccc3oc(=O)c(C(=O)Nc4ccccc4C)cc3c2)cc1`: the TGI with SN12C renal and with HCC-2998 colon was above 10 µM throughout.

In the case of `COc1ccc2c(c1)C(OC)C1c3c(cc4c(c3-2)OCO4)CCN1C` (stereo unspecified), the TGI with SN12C renal came out at 12.1 µM; with HCC-2998 colon, 14.3 µM.

With `C[P+](c1ccccc1)(c1ccc(Cl)cc1)c1ccc(Cl)cc1`, the TGI in the assay with SN12C renal was found to be 51.2 µM; in the assay on HCC-2998 colon it was 24 µM.

Take `O=C(COc1ccccc1)N(C(=O)N1CCN(c2ccccc2)CC1)S(=O)(=O)c1ccccc1`: the TGI in the assay on SN12C renal and in the assay on HCC-2998 colon was above 100 µM in each case.

`CC(C)OC/N=C(/N)NC#N`: the TGI in the assay with SN12C renal, with SNB-78 CNS, with DLD-1 colon, in the assay with XF 498 CNS, with RXF-631 renal and with M19-MEL melanoma was above 100 µM in each case. In addition, the TGI in the assay on HCC-2998 colon, with HOP-18 NSCLC, in the assay on DMS 114 small cell lung, in the assay with LXFL 529 NSCLC, with DMS 273 small cell lung and with KM20L2 colon was above 100 µM in each case.

In the case of `CCC1(CC)N=C(C(F)(F)F)c2cc(C(=O)C(F)(F)F)c3ccccc3c2N1`, the TGI stood at 13.7 µM with SN12C renal and 15.3 µM with HCC-2998 colon.

For `COCN(C)c1nc(N(C)C)nc(N(C)C)n1`, the TGI in the assay on SN12C renal, in the assay on SNB-78 CNS, in the assay with DLD-1 colon, with M19-MEL melanoma, with HCC-2998 colon and in the assay with HOP-18 NSCLC was above 100 µM throughout. The TGI in the assay on DMS 114 small cell lung, with LXFL 529 NSCLC, with DMS 273 small cell lung and with KM20L2 colon was above 100 µM each time.

Consider `COc1ccc(OC)c(NC(=O)C(=O)CC(=O)c2sc(-n3nc(-c4ccccc4)cc3-c3ccccc3)nc2C)c1`, for which the TGI in the assay on SN12C renal, in the assay on SNB-78 CNS, in the assay on DLD-1 colon, with RXF-631 renal, with M19-MEL melanoma and in the assay on HCC-2998 colon was above 100 µM throughout. Further, the TGI in the assay with DMS 114 small cell lung, with LXFL 529 NSCLC, in the assay with DMS 273 small cell lung and in the assay on KM20L2 colon was above 100 µM in each case.

Turning to `CCOC(=O)C1C(c2ccc(OC)cc2)c2c([nH][nH]c2=O)CC1(C)O` (stereo unspecified), the TGI in the assay on SN12C renal and in the assay on HCC-2998 colon was above 100 µM each time.
